Reference: ChEMBL document CHEMBL1201862, “PubChem BioAssay data set” (2004)
Activity calls are given as the source filed them.

Experiments:
[1] = biological target: T1, RNA-binding protein pos-1 (Caenorhabditis elegans, UniProt G5EF15); test: inhibitors of POS-1/mex-3 RNA binding, dose response, biochemical, fluorescence polarization (AID 1964);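 note: purified POS-1 fused to maltose binding protein made in E. coli; potency of compounds blocking POS-1 binding to fluorescent RNA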
T1 sequence (G5EF15 whole entry): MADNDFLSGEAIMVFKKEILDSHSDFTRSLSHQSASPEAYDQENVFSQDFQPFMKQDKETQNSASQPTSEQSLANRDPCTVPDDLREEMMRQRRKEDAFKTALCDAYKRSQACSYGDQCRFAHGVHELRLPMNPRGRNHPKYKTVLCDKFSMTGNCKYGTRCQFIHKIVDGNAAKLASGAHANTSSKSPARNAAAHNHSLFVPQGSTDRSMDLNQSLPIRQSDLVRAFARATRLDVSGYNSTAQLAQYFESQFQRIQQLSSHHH

Aspartyl aminopeptidase = biological target: T2, Aspartyl aminopeptidase (Plasmodium falciparum 3D7, UniProt Q8I2J3)
T2 sequence (Q8I2J3 whole entry): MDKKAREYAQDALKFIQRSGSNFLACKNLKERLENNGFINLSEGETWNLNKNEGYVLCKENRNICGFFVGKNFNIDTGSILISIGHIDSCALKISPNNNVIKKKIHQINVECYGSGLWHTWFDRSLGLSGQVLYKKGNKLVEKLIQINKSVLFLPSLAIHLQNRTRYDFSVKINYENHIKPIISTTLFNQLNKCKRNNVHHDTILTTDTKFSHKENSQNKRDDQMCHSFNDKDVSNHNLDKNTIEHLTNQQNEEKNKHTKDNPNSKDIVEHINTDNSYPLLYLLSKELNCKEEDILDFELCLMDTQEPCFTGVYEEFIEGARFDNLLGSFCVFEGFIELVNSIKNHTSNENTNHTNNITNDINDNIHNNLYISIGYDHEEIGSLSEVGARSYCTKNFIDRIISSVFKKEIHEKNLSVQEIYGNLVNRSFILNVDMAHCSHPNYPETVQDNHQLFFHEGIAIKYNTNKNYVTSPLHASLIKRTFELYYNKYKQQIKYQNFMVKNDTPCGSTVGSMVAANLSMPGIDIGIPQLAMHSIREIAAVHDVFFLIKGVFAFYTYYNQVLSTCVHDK

Procathepsin L = Procathepsin L (Homo sapiens, UniProt P07711)
[2] = biological target: T3, Zinc finger protein mex-5 (Caenorhabditis elegans, UniProt Q9XUB2); test: MEX-5/TCR-2 RNA interaction inhibitors, dose response, biochemical, C. elegans, fluorescence polarization (AID 1960)
T3 sequence (Q9XUB2 whole entry): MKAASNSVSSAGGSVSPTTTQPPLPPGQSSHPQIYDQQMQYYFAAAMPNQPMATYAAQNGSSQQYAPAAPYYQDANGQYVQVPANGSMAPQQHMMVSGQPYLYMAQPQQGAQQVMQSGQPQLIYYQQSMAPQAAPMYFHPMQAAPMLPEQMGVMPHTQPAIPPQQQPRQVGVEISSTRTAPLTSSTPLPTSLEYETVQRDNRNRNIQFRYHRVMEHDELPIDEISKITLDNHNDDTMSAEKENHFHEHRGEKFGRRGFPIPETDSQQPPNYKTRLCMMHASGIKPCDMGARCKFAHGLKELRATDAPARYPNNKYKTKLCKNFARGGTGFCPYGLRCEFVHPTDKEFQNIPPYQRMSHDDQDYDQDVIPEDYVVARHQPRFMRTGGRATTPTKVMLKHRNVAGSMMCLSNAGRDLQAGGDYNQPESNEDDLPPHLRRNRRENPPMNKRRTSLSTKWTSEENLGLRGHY

Large T antigen = Large T antigen (Simian virus 40, UniProt P03070); format: functional, Betapolyomavirus macacae;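 note: Confirmatory-stage PubChem screen for compounds that inhibit SV40 T antigen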
[3] = biological target: Intestinal-type alkaline phosphatase (Mus musculus, UniProt P24822); test: PubChem AID 488785; format: functional
[4] = biological target: FAD-linked sulfhydryl oxidase ALR (Homo sapiens, UniProt P55789); test: inhibitors of human ALR sulfhydryl oxidase, dose response, biochemical, H2O2 detection, luminescence, cherry-pick (AID 493248)
[5] = biological target: T4, Alkaline phosphatase, tissue-nonspecific isozyme (Homo sapiens, UniProt P05186); test: TNAP enzyme inhibition by screening hits, dose response, selectivity assay for mouse IAP inhibitor project, biochemical, human TNAP, uHTS hits (AID 488906); format: functional
T4 sequence (P05186 whole entry): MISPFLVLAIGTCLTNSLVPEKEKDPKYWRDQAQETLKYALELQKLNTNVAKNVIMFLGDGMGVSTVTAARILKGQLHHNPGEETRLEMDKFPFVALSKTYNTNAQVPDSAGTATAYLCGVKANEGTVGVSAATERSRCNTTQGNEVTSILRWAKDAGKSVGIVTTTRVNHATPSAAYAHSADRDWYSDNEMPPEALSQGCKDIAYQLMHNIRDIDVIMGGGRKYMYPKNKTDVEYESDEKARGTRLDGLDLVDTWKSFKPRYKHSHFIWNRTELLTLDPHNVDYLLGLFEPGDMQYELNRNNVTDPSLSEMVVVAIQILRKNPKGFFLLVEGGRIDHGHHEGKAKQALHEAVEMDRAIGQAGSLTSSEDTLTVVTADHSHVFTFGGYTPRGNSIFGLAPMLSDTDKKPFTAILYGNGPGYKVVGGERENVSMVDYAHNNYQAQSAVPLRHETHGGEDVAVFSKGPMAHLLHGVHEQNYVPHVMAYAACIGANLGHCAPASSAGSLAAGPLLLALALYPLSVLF

[6] = biological target: Intestinal-type alkaline phosphatase (Homo sapiens, UniProt P09923); test: inhibition of human intestinal alkaline phosphatase – biochemical, dose response (AID 488876); format: functional
[7] = biological target: T5, Carboxy-terminal domain RNA polymerase II polypeptide A small phosphatase 1 (Homo sapiens, UniProt Q9GZU7); test: inhibitors of CTDSP1, concentration-response testing, biochemical assay, absorbance-based, actives from ultra-high-throughput screening (AID 540297); format: functional
T5 sequence (Q9GZU7 whole entry): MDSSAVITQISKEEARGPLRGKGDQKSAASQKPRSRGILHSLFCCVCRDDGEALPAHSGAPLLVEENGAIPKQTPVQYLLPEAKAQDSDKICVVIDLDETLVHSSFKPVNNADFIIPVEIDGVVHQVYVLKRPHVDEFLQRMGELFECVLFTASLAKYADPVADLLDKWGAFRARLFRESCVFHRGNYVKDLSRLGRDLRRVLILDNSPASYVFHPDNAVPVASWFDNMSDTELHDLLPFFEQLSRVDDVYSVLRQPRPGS

[8] = biological target: T6, Heat shock factor protein 1 (Mus musculus, UniProt P38532); test: HSF1 potentiators in luciferase reporter cells, confirmation, cell-based, NIH3T3, luminescence, dose retest (AID 435004); format: functional;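 note: stress induced by proteasome inhibitor MG132 added 30 min after compound; luciferase reporter driven by HSF1 response element in NIH3T3 cells; actives raise luminescence as potentiators of the MG132 stress response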
T6 sequence (P38532 whole entry): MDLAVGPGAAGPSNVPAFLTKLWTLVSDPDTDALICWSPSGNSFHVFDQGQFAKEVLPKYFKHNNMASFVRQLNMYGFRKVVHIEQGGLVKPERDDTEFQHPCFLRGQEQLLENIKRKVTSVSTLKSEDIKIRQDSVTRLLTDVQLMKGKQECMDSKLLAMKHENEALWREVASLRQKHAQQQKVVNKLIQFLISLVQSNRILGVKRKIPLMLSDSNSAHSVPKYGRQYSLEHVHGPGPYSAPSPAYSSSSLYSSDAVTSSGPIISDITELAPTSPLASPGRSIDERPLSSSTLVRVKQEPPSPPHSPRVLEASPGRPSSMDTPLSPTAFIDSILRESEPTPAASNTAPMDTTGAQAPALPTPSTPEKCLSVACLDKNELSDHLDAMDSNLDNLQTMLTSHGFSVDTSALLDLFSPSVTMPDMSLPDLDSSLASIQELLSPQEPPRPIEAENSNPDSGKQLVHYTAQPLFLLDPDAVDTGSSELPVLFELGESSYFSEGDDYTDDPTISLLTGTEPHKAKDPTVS

Genome polyprotein = Genome polyprotein (dengue virus type 2, UniProt P29990); test: Dengue-2 NS5 methyltransferase inhibitors, primary screen, biochemical, confirmation dose response (AID 588689); format: functional
Tumor necrosis factor = Tumor necrosis factor (Homo sapiens, UniProt P01375); test: TNFa-triggered NF-kB activation inhibitors, SAR follow-up, cell-based, revised (AID 2337); format: functional
[9] = biological target: T7, Nucleotide-binding oligomerization domain-containing protein 1 (Homo sapiens, UniProt Q9Y239); test: NOD1 signaling inhibitors, SAR follow-up, revised (AID 2333); format: functional
T7 sequence (Q9Y239 whole entry): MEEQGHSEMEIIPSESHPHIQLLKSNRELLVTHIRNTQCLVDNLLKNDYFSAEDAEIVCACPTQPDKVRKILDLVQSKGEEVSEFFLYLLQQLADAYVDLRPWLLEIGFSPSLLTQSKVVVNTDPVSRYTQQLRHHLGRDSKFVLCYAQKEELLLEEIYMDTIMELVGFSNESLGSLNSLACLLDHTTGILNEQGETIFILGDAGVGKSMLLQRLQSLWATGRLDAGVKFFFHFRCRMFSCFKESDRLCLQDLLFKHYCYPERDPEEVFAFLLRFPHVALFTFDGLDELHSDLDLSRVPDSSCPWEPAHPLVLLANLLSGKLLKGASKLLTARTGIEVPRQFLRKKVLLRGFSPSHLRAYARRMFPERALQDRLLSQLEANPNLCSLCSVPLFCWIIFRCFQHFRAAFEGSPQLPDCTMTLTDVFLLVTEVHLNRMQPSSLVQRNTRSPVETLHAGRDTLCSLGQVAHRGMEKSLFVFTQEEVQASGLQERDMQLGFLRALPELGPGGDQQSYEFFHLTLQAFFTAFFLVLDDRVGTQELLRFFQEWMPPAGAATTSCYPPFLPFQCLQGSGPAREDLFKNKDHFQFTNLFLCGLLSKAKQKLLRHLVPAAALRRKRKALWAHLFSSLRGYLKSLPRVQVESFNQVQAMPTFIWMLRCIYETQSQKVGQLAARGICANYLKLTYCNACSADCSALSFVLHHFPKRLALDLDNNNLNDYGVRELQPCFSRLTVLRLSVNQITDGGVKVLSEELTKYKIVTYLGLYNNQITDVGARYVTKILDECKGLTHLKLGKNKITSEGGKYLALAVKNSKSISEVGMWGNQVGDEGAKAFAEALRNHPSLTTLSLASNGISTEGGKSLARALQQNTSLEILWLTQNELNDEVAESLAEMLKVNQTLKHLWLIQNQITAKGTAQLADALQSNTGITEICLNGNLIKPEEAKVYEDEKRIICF

HEK293 = test: cells; details: Homo sapiens;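 note: cells exposed to compound for 14 hours overnight before viability readout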

Sequence of Intestinal-type alkaline phosphatase (Homo sapiens, UniProt P09923) (P09923 whole entry, the tested form may be a part): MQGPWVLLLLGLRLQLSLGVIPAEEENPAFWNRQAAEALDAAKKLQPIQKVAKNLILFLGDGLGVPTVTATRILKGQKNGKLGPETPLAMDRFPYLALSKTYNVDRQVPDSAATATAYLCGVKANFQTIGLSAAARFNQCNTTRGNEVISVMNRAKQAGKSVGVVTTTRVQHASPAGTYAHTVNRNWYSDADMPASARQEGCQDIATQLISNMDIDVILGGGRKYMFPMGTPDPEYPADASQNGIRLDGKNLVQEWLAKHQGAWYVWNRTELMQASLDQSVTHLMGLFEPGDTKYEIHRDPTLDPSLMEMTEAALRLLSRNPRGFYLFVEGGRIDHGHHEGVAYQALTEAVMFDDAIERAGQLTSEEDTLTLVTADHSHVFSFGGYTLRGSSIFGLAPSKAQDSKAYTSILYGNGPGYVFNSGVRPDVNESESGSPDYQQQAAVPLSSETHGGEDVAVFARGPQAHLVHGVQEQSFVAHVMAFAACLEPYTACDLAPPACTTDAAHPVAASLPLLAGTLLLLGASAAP
Sequence of Intestinal-type alkaline phosphatase (Mus musculus, UniProt P24822) (P24822 whole entry): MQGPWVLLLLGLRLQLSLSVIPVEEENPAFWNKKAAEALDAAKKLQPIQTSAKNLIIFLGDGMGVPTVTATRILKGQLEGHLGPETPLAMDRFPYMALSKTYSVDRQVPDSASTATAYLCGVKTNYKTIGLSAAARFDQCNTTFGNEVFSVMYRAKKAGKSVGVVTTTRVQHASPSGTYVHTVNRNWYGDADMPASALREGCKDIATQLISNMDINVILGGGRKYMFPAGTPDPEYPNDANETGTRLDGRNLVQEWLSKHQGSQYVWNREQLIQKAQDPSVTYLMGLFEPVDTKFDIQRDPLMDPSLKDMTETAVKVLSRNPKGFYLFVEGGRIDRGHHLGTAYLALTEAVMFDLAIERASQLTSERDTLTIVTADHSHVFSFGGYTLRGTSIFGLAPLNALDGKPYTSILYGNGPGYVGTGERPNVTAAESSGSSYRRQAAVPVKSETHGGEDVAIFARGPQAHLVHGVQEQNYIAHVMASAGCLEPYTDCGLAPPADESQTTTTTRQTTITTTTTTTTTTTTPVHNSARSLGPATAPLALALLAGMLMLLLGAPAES
Sequence of Genome polyprotein (P29990 2492-3391 limits assumed): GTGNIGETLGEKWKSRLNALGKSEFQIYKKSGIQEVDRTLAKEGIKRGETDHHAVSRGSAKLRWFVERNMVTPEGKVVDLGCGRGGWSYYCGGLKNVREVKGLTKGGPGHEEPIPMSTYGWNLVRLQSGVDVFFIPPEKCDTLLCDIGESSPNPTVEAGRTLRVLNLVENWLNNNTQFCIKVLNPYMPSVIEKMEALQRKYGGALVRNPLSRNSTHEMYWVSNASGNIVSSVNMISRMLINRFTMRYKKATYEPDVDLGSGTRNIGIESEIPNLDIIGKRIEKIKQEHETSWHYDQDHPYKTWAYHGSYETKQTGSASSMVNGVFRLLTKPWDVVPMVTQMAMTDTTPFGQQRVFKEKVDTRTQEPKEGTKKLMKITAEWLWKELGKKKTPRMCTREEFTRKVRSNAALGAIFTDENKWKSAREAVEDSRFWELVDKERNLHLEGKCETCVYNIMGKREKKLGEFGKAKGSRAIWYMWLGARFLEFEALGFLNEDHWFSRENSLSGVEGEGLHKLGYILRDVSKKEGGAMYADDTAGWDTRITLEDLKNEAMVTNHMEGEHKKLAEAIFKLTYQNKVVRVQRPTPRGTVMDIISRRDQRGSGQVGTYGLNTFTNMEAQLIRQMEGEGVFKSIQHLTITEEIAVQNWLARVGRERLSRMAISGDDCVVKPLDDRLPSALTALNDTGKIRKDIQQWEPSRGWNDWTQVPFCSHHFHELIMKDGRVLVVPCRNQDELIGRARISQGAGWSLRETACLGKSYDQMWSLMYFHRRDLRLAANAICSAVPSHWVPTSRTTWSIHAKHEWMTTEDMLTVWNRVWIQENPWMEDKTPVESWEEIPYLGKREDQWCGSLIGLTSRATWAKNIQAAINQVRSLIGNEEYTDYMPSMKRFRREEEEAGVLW
Sequence of Large T antigen (P03070 whole entry): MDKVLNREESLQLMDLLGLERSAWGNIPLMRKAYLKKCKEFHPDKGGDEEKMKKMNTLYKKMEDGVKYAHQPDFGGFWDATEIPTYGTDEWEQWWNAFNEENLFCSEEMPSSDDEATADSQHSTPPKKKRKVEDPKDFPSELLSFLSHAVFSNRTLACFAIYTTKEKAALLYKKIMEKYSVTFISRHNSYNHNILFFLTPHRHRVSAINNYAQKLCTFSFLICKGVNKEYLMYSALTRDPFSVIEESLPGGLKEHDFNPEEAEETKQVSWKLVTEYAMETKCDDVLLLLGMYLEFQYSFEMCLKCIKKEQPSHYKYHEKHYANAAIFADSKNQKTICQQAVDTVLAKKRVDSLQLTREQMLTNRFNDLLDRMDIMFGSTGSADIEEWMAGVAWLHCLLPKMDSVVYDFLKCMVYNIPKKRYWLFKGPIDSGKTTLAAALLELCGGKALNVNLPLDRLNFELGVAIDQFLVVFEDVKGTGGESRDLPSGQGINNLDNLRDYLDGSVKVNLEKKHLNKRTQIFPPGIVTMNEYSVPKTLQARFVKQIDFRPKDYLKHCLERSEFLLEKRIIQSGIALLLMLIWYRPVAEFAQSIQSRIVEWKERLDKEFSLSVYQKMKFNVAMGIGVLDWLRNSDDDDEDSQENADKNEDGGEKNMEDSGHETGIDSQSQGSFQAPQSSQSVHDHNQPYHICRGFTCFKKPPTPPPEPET
Sequence of Procathepsin L (P07711 whole entry): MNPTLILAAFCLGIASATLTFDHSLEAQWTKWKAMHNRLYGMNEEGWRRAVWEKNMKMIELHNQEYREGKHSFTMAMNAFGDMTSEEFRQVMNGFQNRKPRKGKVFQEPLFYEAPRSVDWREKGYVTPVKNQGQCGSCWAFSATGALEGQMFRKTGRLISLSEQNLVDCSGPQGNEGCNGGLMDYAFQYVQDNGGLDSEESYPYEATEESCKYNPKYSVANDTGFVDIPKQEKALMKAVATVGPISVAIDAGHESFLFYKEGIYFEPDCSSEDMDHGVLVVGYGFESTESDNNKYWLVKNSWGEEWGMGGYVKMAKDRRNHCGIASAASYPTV
Sequence of FAD-linked sulfhydryl oxidase ALR (P55789 whole entry): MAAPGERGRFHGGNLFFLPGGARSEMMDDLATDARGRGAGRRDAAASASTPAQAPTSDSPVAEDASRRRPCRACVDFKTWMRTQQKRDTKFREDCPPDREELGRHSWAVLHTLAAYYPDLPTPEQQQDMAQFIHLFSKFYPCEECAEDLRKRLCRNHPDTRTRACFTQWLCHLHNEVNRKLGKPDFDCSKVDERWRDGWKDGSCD
Sequence of Tumor necrosis factor (P01375 whole entry, the tested form may be a part): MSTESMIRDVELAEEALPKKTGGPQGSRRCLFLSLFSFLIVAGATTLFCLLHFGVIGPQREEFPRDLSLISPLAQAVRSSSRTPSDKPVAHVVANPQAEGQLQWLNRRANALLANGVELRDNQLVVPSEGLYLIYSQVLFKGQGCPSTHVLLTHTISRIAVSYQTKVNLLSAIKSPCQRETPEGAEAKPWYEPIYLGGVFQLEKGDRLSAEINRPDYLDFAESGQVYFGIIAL

| EC50 [1] | IC50 (Aspartyl aminopeptidase) | IC50 (Procathepsin L) | EC50 [2] | IC50 (Large T antigen) | IC50 [3] | AC50 [4] | IC50 [5] | IC50 [6] | IC50 [7] | EC50 [8] | IC50 (Genome polyprotein) | SMILES | IC50 (Tumor necrosis factor) | IC50 [9] | IC50 (HEK293) |
| --- | --- | --- | --- | --- | --- | --- | --- | --- | --- | --- | --- | --- | --- | --- | --- |
| 250 µM (active) | 0.67 µM (active) | > 59.6 µM (not active) | 179 µM (active) | 4.72 µM (active) | 1.04 µM (active) | 1.05 µM (active) | 1.12 µM (active) | 4.34 µM (active) | 36.1 µM (active) |  |  | O=[N+]([O-])c1c(O)nc(/C=C\c2ccc(O)c(O)c2)nc1O |  |  |  |
| 14.3 µM (active) |  |  | 0.294 µM (inconclusive) |  | 0.206 µM (active) |  | 0.211 µM (active) | > 100 µM (inactive) |  | > 260 µM (inactive) | 61.5 µM (active) | Cc1ccc(Cl)c2c(C3=NC(=S)NC3=O)c(O)[nH]c12 |  |  |  |
|  |  |  |  |  |  |  |  |  |  |  |  | CC1Cc2cc(S(=O)(=O)N3CCN(c4ccccc4)CC3)ccc2N1C(=O)C1CC1 (stereo not given) | 15.3 µM (active) | > 20 µM (inactive) | > 20 µM (inactive) |
